SMILES strings stand for the structures. pIC50: −log10 of the molar value. Where only a bound is given, the exact number is not on record here.

For one data set, the system named is NZOV9. The data set is described as follows: Cellular growth inhibition (3H-thymidine incorporation). Particulars: Homo sapiens, five days incubation, 3H-thymidine over the last 6 hrs, read-out: Cell IC50* NZOV9. The data set is classed as cell-based. The method, then:
(§1) The compounds were evaluated against two early passage human cell lines NZB5 and NZOV9 (Marshall et al., Oncol. Res. 2004, 14, 297). The cells were grown in ITS medium (α-modified minimal essential medium supplemented insulin, transferrin, selenite, and 5% fetal bovine serum) and grown on 96-well tissue culture plates under an atmosphere of 5% O2, 5% CO2, and 90% N2. Individual wells contained 500-1,000 cells (depending on the growth rate) in a volume of 150 μL. Compounds were added at 10-fold concentration steps to a maximum of 20 μM and plates were incubated for five days, with ^3H-thymidine being added over the last 6 hrs. Cells were harvested and incorporated radioactivity measured. Duplicate samples were analyzed for each compound dose with multiple control samples. Data were fitted by a least-squares method to an exponential of the form y=y0+ae^−bx, where y is the radioactivity (corrected for background and normalized to 100% of the control), x is the […], and y0, a, and b are variables, and the IC50 value defined as the compound concentration reducing ^3H-thymidine levels by 50%.
On the technique in general: Dividing cells build labelled thymidine or BrdU into new DNA.

The next data set has as its system NZB5. The description is as above. In kind it is cell-based. Particulars: Homo sapiens, five days incubation, 3H-thymidine over the last 6 hrs, read-out: Cell IC50* NZB5. The method, then: as §1
The target of another data set is p110α/p85 (Homo sapiens, UniProt P42336). The data set is described as follows: Inhibition of isolated enzyme (lipid kinase assay, [γ33P]ATP, TLC). The data set is classed as biochemical. To be noted: recombinant enzyme, 100 μM ATP, 1 hr room temperature, average of two experiments. The method, then: (§2) Compounds were evaluated for their ability to inhibit Class I PI 3-kinase enzymes p110δ/p85, p110α/p85, and p110β/p85. Reaction mixtures comprising 0.1 μg of a recombinant enzyme, 10 μg of L-α-phosphatidylinositol, and 2× Lipid Kinase Buffer (40 mM Tris-HCl, pH 7.4, 200 mM NaCl, 1 mM EDTA), which contains either DMSO only as a control or the test compound in DMSO (the final DMSO concentration is 1%), were activated by the addition of an ATP mix (5 mM MgCl2, 100 μM ATP, and 0.1 μL [γ^33P]ATP). Reactions were incubated at room temperature for 1 hr, and then stopped by the addition of 1M HCl. The lipids were then extracted using a two step procedure. Firstly, 200 μL of chloroform/methanol (1:1) was added, the biphasic reactions mixed and centrifuged briefly, and the inorganic phase was removed and discarded. Following this, 80 μL of methanol:HCl (1:1) was added and the same procedure followed. The organic phase (70 μL) was then transferred to a clean 1.6 mL tube and the reactions were dried using a Speedvac, with no heating, for […]. The reactions were spotted onto TLC plates (Merck Ltd) and developed for 1 hr in propanol-1:2 M acetic acid (13:7). The TLC plates were then dried at room temperature and quantified using a phosphorimager (StormImager, Amersham). Nine compound concentrations were used for each test compound to determine its IC50 value. Each experiment was performed twice and the average IC50 value is used herein.

In the next data set the target is p110δ/p85 (Homo sapiens, UniProt O00329). The description is as above. The data set is classed as biochemical. To be noted: recombinant enzyme, 100 μM ATP, 1 hr room temperature, average of two experiments. On the procedure: as §2
A further data set concerns the target p110β/p85 (Homo sapiens, UniProt P42338). Kind of data set: Inhibition of isolated enzyme (lipid kinase assay, [γ33P]ATP, TLC). In kind it is biochemical. Particulars: recombinant enzyme, 100 μM ATP, 1 hr room temperature, average of two experiments. On the procedure:
as §2

Sequence of p110δ/p85 (O00329 whole entry, species assumed): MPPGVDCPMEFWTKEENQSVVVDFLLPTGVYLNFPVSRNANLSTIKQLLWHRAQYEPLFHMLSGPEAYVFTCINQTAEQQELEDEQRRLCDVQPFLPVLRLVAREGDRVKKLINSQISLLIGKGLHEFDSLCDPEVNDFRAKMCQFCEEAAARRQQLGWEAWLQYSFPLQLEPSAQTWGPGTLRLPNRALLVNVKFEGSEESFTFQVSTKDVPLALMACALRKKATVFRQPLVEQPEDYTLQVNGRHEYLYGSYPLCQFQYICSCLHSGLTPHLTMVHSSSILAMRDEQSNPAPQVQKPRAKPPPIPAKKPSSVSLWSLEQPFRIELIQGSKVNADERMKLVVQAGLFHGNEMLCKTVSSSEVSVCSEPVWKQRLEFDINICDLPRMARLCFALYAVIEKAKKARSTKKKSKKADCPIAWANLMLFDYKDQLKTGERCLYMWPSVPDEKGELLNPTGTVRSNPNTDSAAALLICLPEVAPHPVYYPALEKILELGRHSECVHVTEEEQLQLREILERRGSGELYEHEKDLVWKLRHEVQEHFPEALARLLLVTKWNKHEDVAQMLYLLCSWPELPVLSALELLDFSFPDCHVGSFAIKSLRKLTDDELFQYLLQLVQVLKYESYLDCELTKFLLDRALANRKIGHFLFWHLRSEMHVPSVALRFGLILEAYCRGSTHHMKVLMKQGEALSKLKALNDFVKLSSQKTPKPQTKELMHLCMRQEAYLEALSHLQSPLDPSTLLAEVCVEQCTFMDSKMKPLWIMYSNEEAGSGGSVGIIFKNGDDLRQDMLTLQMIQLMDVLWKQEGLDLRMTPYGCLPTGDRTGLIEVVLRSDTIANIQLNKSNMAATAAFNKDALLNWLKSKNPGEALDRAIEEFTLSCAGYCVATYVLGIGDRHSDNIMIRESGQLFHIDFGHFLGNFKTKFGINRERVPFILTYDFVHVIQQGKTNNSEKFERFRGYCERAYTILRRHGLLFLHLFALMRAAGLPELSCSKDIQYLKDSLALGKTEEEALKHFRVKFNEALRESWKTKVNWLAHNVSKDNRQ
Sequence of p110δ/p85 (P27986 whole entry partner, species assumed): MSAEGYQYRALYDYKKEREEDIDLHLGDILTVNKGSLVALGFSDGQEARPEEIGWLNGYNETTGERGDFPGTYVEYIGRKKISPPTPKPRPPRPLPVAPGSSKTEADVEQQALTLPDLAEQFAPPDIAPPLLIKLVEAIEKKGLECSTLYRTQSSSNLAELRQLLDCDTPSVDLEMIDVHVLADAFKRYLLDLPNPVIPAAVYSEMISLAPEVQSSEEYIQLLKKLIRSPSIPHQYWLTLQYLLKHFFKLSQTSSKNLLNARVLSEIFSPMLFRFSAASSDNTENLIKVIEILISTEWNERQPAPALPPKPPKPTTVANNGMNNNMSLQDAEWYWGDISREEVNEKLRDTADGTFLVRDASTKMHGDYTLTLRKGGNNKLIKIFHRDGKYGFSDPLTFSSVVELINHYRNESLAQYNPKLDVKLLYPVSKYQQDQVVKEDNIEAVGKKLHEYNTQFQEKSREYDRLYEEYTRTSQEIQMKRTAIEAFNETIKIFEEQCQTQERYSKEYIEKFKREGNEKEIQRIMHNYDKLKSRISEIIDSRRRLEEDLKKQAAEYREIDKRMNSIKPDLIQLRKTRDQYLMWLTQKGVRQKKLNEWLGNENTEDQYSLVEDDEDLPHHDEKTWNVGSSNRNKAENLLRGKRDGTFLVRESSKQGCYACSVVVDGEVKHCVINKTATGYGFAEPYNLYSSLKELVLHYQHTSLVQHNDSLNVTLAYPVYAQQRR
Sequence of p110β/p85 (P42338 whole entry, species assumed): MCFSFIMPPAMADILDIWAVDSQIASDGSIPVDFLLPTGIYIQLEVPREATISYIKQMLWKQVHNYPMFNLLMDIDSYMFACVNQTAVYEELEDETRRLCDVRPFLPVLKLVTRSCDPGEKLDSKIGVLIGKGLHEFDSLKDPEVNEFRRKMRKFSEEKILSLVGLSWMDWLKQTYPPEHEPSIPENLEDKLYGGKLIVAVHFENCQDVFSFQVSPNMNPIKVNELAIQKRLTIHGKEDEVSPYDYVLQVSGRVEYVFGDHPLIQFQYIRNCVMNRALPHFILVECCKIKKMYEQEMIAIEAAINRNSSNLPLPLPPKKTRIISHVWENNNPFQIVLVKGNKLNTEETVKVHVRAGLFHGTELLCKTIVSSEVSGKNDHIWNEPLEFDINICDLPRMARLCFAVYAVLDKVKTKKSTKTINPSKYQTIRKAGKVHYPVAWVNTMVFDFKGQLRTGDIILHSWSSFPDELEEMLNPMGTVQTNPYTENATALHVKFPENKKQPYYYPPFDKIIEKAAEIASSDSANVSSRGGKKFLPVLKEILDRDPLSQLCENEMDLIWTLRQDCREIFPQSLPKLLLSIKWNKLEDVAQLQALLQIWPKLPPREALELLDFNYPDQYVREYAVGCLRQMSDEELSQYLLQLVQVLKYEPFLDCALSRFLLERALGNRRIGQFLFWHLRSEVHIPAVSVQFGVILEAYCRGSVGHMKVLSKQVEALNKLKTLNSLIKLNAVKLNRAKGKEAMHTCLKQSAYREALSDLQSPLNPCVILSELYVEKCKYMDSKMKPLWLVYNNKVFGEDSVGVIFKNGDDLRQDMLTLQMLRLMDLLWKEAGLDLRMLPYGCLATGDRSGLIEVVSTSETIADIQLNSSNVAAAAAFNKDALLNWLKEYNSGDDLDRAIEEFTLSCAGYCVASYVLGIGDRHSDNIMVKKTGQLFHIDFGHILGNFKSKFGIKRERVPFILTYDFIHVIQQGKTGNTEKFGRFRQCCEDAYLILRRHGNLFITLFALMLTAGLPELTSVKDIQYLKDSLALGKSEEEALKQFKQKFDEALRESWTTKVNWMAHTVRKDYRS
Sequence of p110β/p85 (P27986 whole entry partner, species assumed): as the sequence (P27986 whole entry partner, species assumed) above
Sequence of p110α/p85 (P42336 whole entry): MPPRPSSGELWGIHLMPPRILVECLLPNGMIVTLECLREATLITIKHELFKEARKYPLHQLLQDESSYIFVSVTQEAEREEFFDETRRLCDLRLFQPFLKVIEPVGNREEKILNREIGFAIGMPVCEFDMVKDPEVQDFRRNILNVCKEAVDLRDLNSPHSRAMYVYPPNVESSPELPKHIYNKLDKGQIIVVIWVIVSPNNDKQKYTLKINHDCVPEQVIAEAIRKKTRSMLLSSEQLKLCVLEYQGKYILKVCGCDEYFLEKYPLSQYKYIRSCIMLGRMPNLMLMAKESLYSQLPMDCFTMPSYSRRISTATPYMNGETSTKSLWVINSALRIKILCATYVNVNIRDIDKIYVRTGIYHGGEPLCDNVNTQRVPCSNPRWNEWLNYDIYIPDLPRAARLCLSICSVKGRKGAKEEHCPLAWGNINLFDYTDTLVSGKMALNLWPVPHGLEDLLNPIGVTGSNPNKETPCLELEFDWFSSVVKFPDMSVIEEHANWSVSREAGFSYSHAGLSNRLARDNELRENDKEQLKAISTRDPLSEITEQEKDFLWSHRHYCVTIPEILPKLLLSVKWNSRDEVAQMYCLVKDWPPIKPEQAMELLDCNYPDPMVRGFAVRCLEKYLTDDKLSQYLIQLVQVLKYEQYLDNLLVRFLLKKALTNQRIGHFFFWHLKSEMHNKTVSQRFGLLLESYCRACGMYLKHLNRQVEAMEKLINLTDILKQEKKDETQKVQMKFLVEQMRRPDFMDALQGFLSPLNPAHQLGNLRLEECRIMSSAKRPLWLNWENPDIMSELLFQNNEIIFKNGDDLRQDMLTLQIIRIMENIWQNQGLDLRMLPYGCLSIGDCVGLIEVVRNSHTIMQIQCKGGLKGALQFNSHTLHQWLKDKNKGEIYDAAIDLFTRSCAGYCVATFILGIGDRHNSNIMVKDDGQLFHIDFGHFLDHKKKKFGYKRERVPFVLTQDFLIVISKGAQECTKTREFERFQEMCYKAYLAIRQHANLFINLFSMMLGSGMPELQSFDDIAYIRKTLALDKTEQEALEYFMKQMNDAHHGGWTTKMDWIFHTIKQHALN
Sequence of p110α/p85 (P27986 whole entry partner): as the sequence (P27986 whole entry partner, species assumed) above

Broadly, the pIC50 is the IC50 on a negative log10 scale, so that one unit is a factor of ten. The melting point is the temperature of the solid-liquid transition. On to `FC(F)c1nc2ccccc2n1-c1nc(Nc2ccncn2)nc(N2CCOCC2)n1` [Example 20, 4-[2-(difluoromethyl)-1H-benzimidazol-1-yl]-6-(4-morpholinyl)-N-(4-pyrimidinyl)-1,3,5-triazin-2-amine], for which the melting point was in the range of 233 to 235 °C. The pIC50 in the data set with NZOV9 was 6.00 to 7.00. For the same compound, in the data set on NZB5, the pIC50 is 6.00 to 7.00. Also, the pIC50 at p110α/p85 is above 7.00. Further, on p110δ/p85, the pIC50 was above 7.00.
In the case of `FC(F)c1nc2ccccc2n1-c1nc(Nc2cncnc2)nc(N2CCOCC2)n1` [Example 21, 4-[2-(difluoromethyl)-1H-benzimidazol-1-yl]-6-(4-morpholinyl)-N-(5-pyrimidinyl)-1,3,5-triazin-2-amine], the melting point is 290 to 292 °C. Further, in the data set with NZOV9, the negative logarithm of the IC50 (pIC50) was 6.00 to 7.00. In addition, the pIC50 with NZB5 is 6.00 to 7.00. In addition, the pIC50 on p110α/p85 was above 7.00. The pIC50 on p110δ/p85 is above 7.00.
For the compound `CN(Cc1ccccc1)c1nc(N2CCOCC2)nc(-n2c(C(F)F)nc3ccccc32)n1` [Example 9, N-benzyl-4-[2-(difluoromethyl)-1H-benzimidazol-1-yl]-N-methyl-6-(4-morpholinyl)-1,3,5-triazin-2-amine], the melting point was in the range of 147 to 150 °C. Also, the negative logarithm of the IC50 (pIC50) in the data set on NZOV9 is 6.00 to 7.00. The pIC50 on p110β/p85 is 6.00 to 7.00. Moreover, the negative-log IC50 (pIC50) on p110α/p85 is 5.00 to 6.00. The pIC50 on p110δ/p85 was above 7.00.
Compound `FC(F)c1nc2ccccc2n1-c1nc(Nc2ccccn2)nc(N2CCOCC2)n1` [Example 16, 4-[2-(difluoromethyl)-1H-benzimidazol-1-yl]-6-(4-morpholinyl)-N-(2-pyridinyl)-1,3,5-triazin-2-amine] showed a melting point of 230 to 232 °C. Further, the negative logarithm of the IC50 (pIC50) with NZOV9 was 6.00 to 7.00. The negative-log IC50 (pIC50) in the data set with NZB5 was 6.00 to 7.00. Also, at p110α/p85, the pIC50 was above 7.00. Also, on p110δ/p85, the negative-log IC50 (pIC50) was above 7.00.
Consider `FC(F)c1nc2ccccc2n1-c1nc(Nc2cnccn2)nc(N2CCOCC2)n1` [Example 22, 4-[2-(difluoromethyl)-1H-benzimidazol-1-yl]-6-(4-morpholinyl)-N-(2-pyrazinyl)-1,3,5-triazin-2-amine], for which the melting point was 271 to 274 °C. Also, the negative logarithm of the IC50 (pIC50) with NZOV9 was 6.00 to 7.00. Moreover, in the data set with NZB5, the pIC50 is 6.00 to 7.00. Further, the negative-log IC50 (pIC50) on p110α/p85 is above 7.00. Also, the pIC50 at p110δ/p85 is above 7.00.
Consider `COc1ncc(Nc2nc(N3CCOCC3)nc(-n3c(C(F)F)nc4c(OC)cccc43)n2)cn1` [Example 40, 4-[2-(difluoromethyl)-4-methoxy-1H-benzimidazol-1-yl]-N-(2-methoxy-5-pyrimidinyl)-6-(4-morpholinyl)-1,3,5-triazin-2-amine], for which the negative logarithm of the IC50 (pIC50) is 6.00 to 7.00 with NZOV9; 6.00 to 7.00 with NZB5; 6.00 to 7.00 on p110β/p85; above 7.00 at p110α/p85; above 7.00 at p110δ/p85.
As for `FC(F)c1nc2ccccc2n1-c1nc(Nc2cncnc2)nc(N2CCOCC2)n1` [Example 35, 4-[2-(difluoromethyl)-1H-benzimidazol-1-yl]-6-(4-morpholinyl)-N-(5-pyrimidinyl)-1,3,5-triazin-2-amine], the negative-log IC50 (pIC50) on p110β/p85 is 6.00 to 7.00.
For `FC(F)c1nc2ccccc2n1-c1nc(Nc2cnc3ccccc3c2)nc(N2CCOCC2)n1` [Example 18, N-[4-[2-(difluoromethyl)-1H-benzimidazol-1-yl]-6-(4-morpholinyl)-1,3,5-triazin-2-yl]-3-quinolinamine], the melting point was 270 to 273 °C. Further, the pIC50 in the data set with NZOV9 was 6.00 to 7.00. For the same compound, the pIC50 in the data set with NZB5 was 6.00 to 7.00. At p110α/p85, the negative logarithm of the IC50 (pIC50) was 6.00 to 7.00. The pIC50 at p110δ/p85 is 6.00 to 7.00.
Take `FC(F)c1nc2ccccc2n1-c1nc(Oc2cccnc2)nc(N2CCOCC2)n1` [Example 24, 2-(difluoromethyl)-1-[4-(4-morpholinyl)-6-(3-pyridinyloxy)-1,3,5-triazin-2-yl]-1H-benzimidazole]: the melting point is 229 to 231 °C. In addition, the pIC50 in the data set on NZOV9 is 5.00 to 6.00. Moreover, the negative logarithm of the IC50 (pIC50) with NZB5 was 5.00 to 6.00. For the same compound, the pIC50 at p110α/p85 is 6.00 to 7.00.

For the origin of these results see patent publication US8486939B2, “Pyrimidinyl and 1,3,5-triazinyl benzimidazoles and their use in cancer therapy” (Pathway Therapeutics Inc., priority 2009, dated 2013).
